Test results reported in ChEMBL document CHEMBL3508140 (2016).

Legend:
[1] = Incidence of persistent proteinuria following reference intravenous doxorubicin at 1 mg.Kg-1 per week in rat; format: toxicity, organism-based, SD; design: dose 1 mg.Kg-1, dosed compound id 2.46809e+06, dosed compound name Doxorubicin, dose level High, gender Mixed, regimen Once per week, route intravenous, sampling time 36 Week, study doses 0/0.3/0.6/1 mg.Kg-1; details: in vivo
in vivo [2] = details: female, BALB/c, mouse, tumor, iv, 10 mg/kg
in vivo [3] = details: female, BALB/c, mouse, plasma, iv, 10 mg/kg
[4] = Percentage of doxorubicin excreted unchanged in urine following doxorubicin at 60 mg.m-2 dose in cancer patients; format: ADME, organism-based; design: dose 60 mg.m-2, dosed compound id 2.46809e+06, dosed compound name Doxorubicin; details: human, at 60 mg/m2, read-out: Compound recovery
in vivo [5] = details: female, BALB/c, mouse, heart, iv, 10 mg/kg
[6] = Terminal half-life of doxorubicin following intravenous doxorubicin at 1.27 mg.Kg-1 dose in dog; format: ADME, organism-based, Canis lupus familiaris, Beagle, Plasma; design: dose 1.27 mg.Kg-1, dosed compound id 2.46809e+06, dosed compound name Doxorubicin, route intravenous; details: in vivo
[7] = Renal clearance of doxorubicin following doxorubicin at 60 mg.m-2 dose in cancer patients; format: ADME, organism-based, Kidney; details: human, in vivo, iv, read-out: Renal clearance (converted)
[8] = Increase in serum triglycerides level following reference intravenous doxorubicin at 1 mg.Kg-1 per week in rat; format: toxicity, organism-based, SD; design: dose 1 mg.Kg-1, dosed compound id 2.46809e+06, dosed compound name Doxorubicin, dose level High, gender Mixed, regimen Once per week, route intravenous, sampling time 8-22 Week, study doses 0/0.3/0.6/1 mg.Kg-1; details: in vivo
[9] = Volume of distribution at steady state following doxorubicin at 60 mg.m-2 dose in patients with cancer; format: ADME, organism-based; design: dose 60 mg.m-2, dosed compound id 2.46809e+06, dosed compound name Doxorubicin; details: human, plasma, read-out: Vss
Homo sapiens = species: Homo sapiens; test: Binding of doxorubicin to plasma protein of human; format: cell-free
[10] = (§1) Urinary elimination of adriamycin following intravenous bolus adriamycin at 10 mg.Kg-1 dose in rat; format: ADME, organism-based; design: dose 10 mg.Kg-1, dosed compound id 2.46809e+06, dosed compound name Doxorubicin, route intravenous, sampling time 0-60 h; details: SD, urine, read-out: Compound recovery
[11] = Mean plasma clearance of doxorubicin following intravenous doxorubicin at 60 mg.m-2 dose in cancer patients; format: ADME, organism-based; details: human, read-out: CLp (converted)
[12] = Decrease in leukocytes observed following reference intravenous doxorubicin at 1 mg.Kg-1 per week in rat; format: toxicity, organism-based, SD, Blood; design: dose 1 mg.Kg-1, dosed compound id 2.46809e+06, dosed compound name Doxorubicin, dose level High, gender Mixed, regimen Once per week, route intravenous, sampling time 36 Week, study doses 0/0.3/0.6/1 mg.Kg-1; details: in vivo
[13] = Increase in serum total cholesterol level following reference intravenous doxorubicin at 1 mg.Kg-1 per week in rat; format: toxicity, organism-based, SD; design: dose 1 mg.Kg-1, dosed compound id 2.46809e+06, dosed compound name Doxorubicin, dose level High, gender Mixed, regimen Once per week, route intravenous, sampling time 8-22 Week, study doses 0/0.3/0.6/1 mg.Kg-1; details: in vivo
[14] = AUC values (0-48 h) of doxorubicin in tumor following single intravenous doxorubicin at 10 mg.Kg-1 dose in female mouse bearing colon tumor; format: ADME, organism-based, BALB/c, Neoplasm; design: time < 48 hr, dose 10 mg.Kg-1, dosed compound id 2.46809e+06, dosed compound name Doxorubicin, gender F, regimen Single, route intravenous, sampling time 48 h; details: in vivo
[15] = Volume of distribution of adriamycin following intravenous adriamycin at 1.27 mg.Kg-1 dose in dog; format: ADME, organism-based, Canis lupus familiaris; design: dose 1.27 mg.Kg-1, dosed compound id 2.46809e+06, dosed compound name Doxorubicin, route intravenous; details: Beagle, plasma
[16] = as §1; format: ADME, organism-based; design: dose 10 mg.Kg-1, dosed compound id 2.46809e+06, dosed compound name Doxorubicin, route intravenous, sampling time 0-24 h; details: SD, urine, read-out: Compound recovery
[17] = AUC values (0-48 h) of doxorubicin in heart following single intravenous doxorubicin at 10 mg.Kg-1 dose in female mouse bearing colon tumor; format: ADME, organism-based, BALB/c; design: time < 48 hr, dose 10 mg.Kg-1, dosed compound id 2.46809e+06, dosed compound name Doxorubicin, gender F, regimen Single, route intravenous, sampling time 48 h; details: in vivo
[18] = Elimination of doxorubicin following doxorubicin at 60 mg.m-2 dose in cancer patients; format: ADME, organism-based, Plasma; details: human, in vivo, iv
[19] = Plasma clearance of adriamycin following intravenous adriamycin at 1.27 mg.Kg-1 dose in dog; format: ADME, organism-based, Canis lupus familiaris; design: dose 1.27 mg.Kg-1, dosed compound id 2.46809e+06, dosed compound name Doxorubicin, route intravenous; details: Beagle, read-out: Clp
[20] = Incidence of leukocyturia following reference intravenous doxorubicin at 1 mg.Kg-1 per week in rat; format: toxicity, organism-based, SD; design: dose 1 mg.Kg-1, dosed compound id 2.46809e+06, dosed compound name Doxorubicin, dose level High, gender Mixed, regimen Once per week, route intravenous, sampling time 36 Week, study doses 0/0.3/0.6/1 mg.Kg-1; details: in vivo
[21] = Mean terminal half-life of doxorubicin following intravenous doxorubicin at 60 mg.m-2 dose in cancer patients; details: human, plasma
[22] = as §1; format: ADME, organism-based; design: dose 10 mg.Kg-1, dosed compound id 2.46809e+06, dosed compound name Doxorubicin, route intravenous, sampling time 0-6 h; details: SD, urine, read-out: Compound recovery
[23] = AUC values (0-48 h) of doxorubicin in plasma following single intravenous doxorubicin at 10 mg.Kg-1 dose in female mouse bearing colon tumor; format: ADME, organism-based, BALB/c; design: time < 48 hr, dose 10 mg.Kg-1, dosed compound id 2.46809e+06, dosed compound name Doxorubicin, gender F, regimen Single, route intravenous, sampling time 48 h; details: in vivo
[24] = Increase in serum phospholipid level following reference intravenous doxorubicin at 1 mg.Kg-1 per week in rat; format: toxicity, organism-based, SD; design: dose 1 mg.Kg-1, dosed compound id 2.46809e+06, dosed compound name Doxorubicin, dose level High, gender Mixed, regimen Once per week, route intravenous, sampling time 8-22 Week, study doses 0/0.3/0.6/1 mg.Kg-1; details: in vivo
Albumin = Albumin (Homo sapiens, UniProt P02768); test: Binding of doxorubicin to albumin; format: cell-free; details: read-out: Plasma protein binding (converted)
Albumin, sequence (P02768 whole entry): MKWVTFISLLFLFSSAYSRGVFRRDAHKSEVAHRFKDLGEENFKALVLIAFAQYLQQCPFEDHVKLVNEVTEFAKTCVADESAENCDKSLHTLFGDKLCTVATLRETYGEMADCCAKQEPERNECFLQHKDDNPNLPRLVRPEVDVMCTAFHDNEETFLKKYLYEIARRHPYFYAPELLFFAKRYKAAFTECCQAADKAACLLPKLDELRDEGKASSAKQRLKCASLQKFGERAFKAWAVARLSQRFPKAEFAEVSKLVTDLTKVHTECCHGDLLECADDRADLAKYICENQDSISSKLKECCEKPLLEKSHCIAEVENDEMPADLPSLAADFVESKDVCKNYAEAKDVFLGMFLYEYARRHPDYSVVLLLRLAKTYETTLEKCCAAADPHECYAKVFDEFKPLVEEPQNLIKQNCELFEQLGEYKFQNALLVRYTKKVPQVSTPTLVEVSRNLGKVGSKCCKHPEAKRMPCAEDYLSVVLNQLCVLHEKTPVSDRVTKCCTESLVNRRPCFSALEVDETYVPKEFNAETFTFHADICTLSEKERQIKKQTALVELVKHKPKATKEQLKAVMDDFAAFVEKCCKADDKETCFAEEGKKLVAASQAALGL

[25] = Mean AUC of doxorubicin following intravenous doxorubicin at 60 mg.m-2 dose in cancer patients; format: ADME, organism-based; details: human, plasma
in vivo [26] = details: Beagle, dog, plasma, iv, 1.27 mg/kg
[27] = Detection of doxorubicin in plasma following single intravenous doxorubicin at 10 mg.Kg-1 dose in female mouse bearing colon tumor; format: ADME, organism-based, BALB/c; design: dose 10 mg.Kg-1, dosed compound id 2.46809e+06, dosed compound name Doxorubicin, gender F, regimen Single, route intravenous, sampling time 48 h; details: in vivo
[28] = Mortality occurred following reference intravenous doxorubicin at 1 mg.Kg-1 per week in rat; format: toxicity, organism-based, SD; design: dose 1 mg.Kg-1, dosed compound id 2.46809e+06, dosed compound name Doxorubicin, dose level High, gender Mixed, regimen Once per week, route intravenous, sampling time 17 Week, study doses 0/0.3/0.6/1 mg.Kg-1; details: in vivo
[29] = Detection of doxorubicin in tumor following single intravenous doxorubicin at 10 mg.Kg-1 dose in female mouse bearing colon tumor; format: ADME, organism-based, BALB/c, Neoplasm; design: dose 10 mg.Kg-1, dosed compound id 2.46809e+06, dosed compound name Doxorubicin, gender F, regimen Single, route intravenous, sampling time 48 h; details: in vivo
[30] = Detection of doxorubicin in heart following single intravenous doxorubicin at 10 mg.Kg-1 dose in female mouse bearing colon tumor; format: ADME, organism-based, BALB/c; design: dose 10 mg.Kg-1, dosed compound id 2.46809e+06, dosed compound name Doxorubicin, gender F, regimen Single, route intravenous, sampling time 48 h; details: in vivo
[31] = Decrease in albumin due to persistent proteinuria following reference intravenous doxorubicin at 1 mg.Kg-1 per week in rat; format: toxicity, organism-based, SD, Serum; design: dose 1 mg.Kg-1, dosed compound id 2.46809e+06, dosed compound name Doxorubicin, dose level High, gender Mixed, regimen Once per week, route intravenous, sampling time 36 Week, study doses 0/0.3/0.6/1 mg.Kg-1; details: in vivo

COc1cccc2c1C(=O)c1c(O)c3c(c(O)c1C2=O)C[C@@](O)(C(=O)CO)C[C@@H]3O[C@H]1C[C@H](N)[C@H](O)[C@H](C)O1 [DOXORUBICIN]
Incidence [1]: OUTCOME = Observed | half-life (in vivo [2]): 32.1 h | half-life (in vivo [3]): 49.5 h | dose excreted at 7 Day [4]: 9% | half-life (in vivo [5]): 13.2 h | t1/2 [6]: VALUE = Shorter than doxorubicin | CL renal [7]: 76.7 mL/min | TRIG_CHANGE [8]: OUTCOME = Increased | Vd [9]: 33 L/kg | PPB (Homo sapiens): 71% | dose excreted [10]: 3.33% | clearance [11]: 950 mL/min | WBC_CHANGE [12]: 45% | CHOL_CHANGE [13]: OUTCOME = Increased | AUC [14]: 8700 nmol·min/g | Vd [15]: 19.1 L/kg | dose excreted [16]: 2.77% | AUC [17]: 14100 nmol·min/g | Elimination [18]: OUTCOME = Observed | clearance [19]: 607 mL/min | Incidence [20]: OUTCOME = Observed | half-life [21]: 48 h | dose excreted [22]: 2.08% | AUC [23]: 204.9 nmol·min/mL | PHOSLPD_CHANGE [24]: OUTCOME = Increased | fraction unbound (Albumin): 0.38 | AUC [25]: 1970 ng·h/mL | half-life (in vivo [26]): 5.4 min | Compound recovery [27]: OUTCOME = Observed | Mortality [28]: OUTCOME = Observed, N_AFFECTED = 9 | Compound recovery [29]: OUTCOME = Observed | Compound recovery [30]: OUTCOME = Observed | ALB_CHANGE [31]: OUTCOME = Decreased
